Experimental data: patent US11242344B2, “(4-hydroxypyrrolidin-2-yl)-heterocyclic compounds and methods of use thereof” (Genentech, Inc., priority 2017, dated 2022)

Assays:
VHL Elongin B/C complex = VHL Elongin B/C complex (Homo sapiens (Human), UniProt P40337); experiment: Fluorescence Polarization (FP) VHL Binding Assay; conditions: VHL binding, FP assay; geometric mean where more than one measurement
In short: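 Readout is polarization of a TAMRA-coupled VHL ligand (1.67 nM final) displaced from the VHL(E55-D213)/Elongin B/C complex (2.64 nM final) after 1 h incubation at room temperature in pH 8.0 Tris buffer with 1% DMSO. Data normalized to no-VHL and compound-free controls, with compound fluorescence subtracted, and fitted by four-parameter curve for IC50.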

BRD4 = BRD4 (Homo sapiens (Human), UniProt O60885); experiment: BRD4 degradation assay in PC3 (Steap-1) prostate cancer cells, high content fluorescence imaging; format: cell-based; conditions: PC3 (Steap-1) cells, 4 hours; for DC50: BRD4 immunofluorescence, read-out: PC3 (Steap-1) EC50; for PC3 (Steap-1) Sinf (%): maximum degradation, percent change in protein level (-100% = complete loss)
Protocol: PC3 (Steap-1) prostate cancer cells: PC3 (Steap-1) prostate cancer cells (PC3 cells overexpressing the surface protein Steap-1) were seeded on day 1 at a density of 200,000 cells/mL in 45 μl/well in cell plates in a 384 well Greiner/Perkin Elmer Cell Carrier TC Treated plate (part #6007430) in Assay Medium (RPMI, 10% FBS, 2 mM Glutamax). Cells were incubated overnight at 37° C. degrees. On day 2, compounds were serially diluted 3-fold in DMSO spanning the concentrations 10 mM to 8.6 nM, in 384 well clear polypropylene plates (Greiner Cat #781201). DMSO and 10 mM of a control PROTAC (dBET1, as described in WO 2017/024317, p. 235, structure below) (control compound) were added to designated wells. Compounds and controls were diluted 50-fold (2 μl of DMSO stock into 98 μl) into Assay Medium. 5 μl of the diluted compounds was transferred to the cell plates. The final top concentration of the test compounds in the cell plates was 20 μM. Cell plates were incubated at 37° C., for 4 hours. Fixation and permeabilization were carried out using a Biotek EL406 plate washer and dispenser as follows. Cells were fixed by addition of 15 μL of 16% paraformaldehyde (Electron Microscopy Sciences #15710-S) directly to the 50 μL cell culture medium in each well using the peristaltic pump 5 μL cassette on a Biotek EL406 (final concentration of formaldehyde was 3.7% w/v). Samples were incubated 30 minutes. Well contents were aspirated and 50 μL/well of Phosphate Buffered Saline (PBS) containing 0.5% w/v bovine serum albumen, 0.5% v/v Triton X-100 (Antibody Dilution Buffer) was added to each well. Samples were incubated for 30 minutes. Well contents were aspirated and washed 3 times with 100 μL/well of PBS.
For both the PC3 and EOL-1 cell assays, immunofluorescence staining of BRD4 was carried out using a Biotek EL406 plate washer and dispenser as follows. The well supernatant was aspirated from the wells and 25 μL/well of rabbit mAb Anti-BRD4 [EPR5150(2)] abeam 128874 diluted 1:500 in Antibody Dilution Buffer is dispensed. Samples were incubated for 2 hours at room temperature. Samples were washed 4 times with 100 μL/well of PBS. 25 μL/well of secondary antibody solution (Goat Anti-Rabbit IgG, DyLight 488 Conjugated Highly Cross-adsorbed #35553 1:1000) diluted 1:1000 and Hoechst 33342 1 μg/ml diluted in Antibody Dilution Buffer) were dispensed into each well. 16 wells of the plate, which were designated as ‘no primary antibody” wells, received only Antibody Dilution Buffer (without anti-BRD4 antibody). Samples were incubated for 2 hours at room temperature. Samples were washed 3 times with 100 μL/well of PBS using a Biotek EL406. Quantitative fluorescence imaging of BRD4 was carried out using a Phenix (Perkin Elmer). Fluorescence images of the samples (Channel 1: Hoechst33342 (DNA stain); Channel 2: 488 nm (BRD4 stain)) were acquired. Channel 1 (DNA stain) was used to define the “Region of Interest” (ROI) nuclear region. Measurements of BRD4 average immunofluorescence intensity within the ROI (nuclear region), were made on a per cell basis and averaged over all the measured cells. Data analysis was carried out using Genedata Screener Software, with DMSO and “no primary antibody” samples being used to define the 0% and 100% changes in BRD4. The “Robust Fit” method was used to define the inflexion point of curve (EC50) and the plateau of the maximal effect (Sinf). The Sinf value reports degradation as percent change in protein level, so complete loss of the protein target is −100%. […]

Chain of VHL Elongin B/C complex (P40337 whole entry, looked up): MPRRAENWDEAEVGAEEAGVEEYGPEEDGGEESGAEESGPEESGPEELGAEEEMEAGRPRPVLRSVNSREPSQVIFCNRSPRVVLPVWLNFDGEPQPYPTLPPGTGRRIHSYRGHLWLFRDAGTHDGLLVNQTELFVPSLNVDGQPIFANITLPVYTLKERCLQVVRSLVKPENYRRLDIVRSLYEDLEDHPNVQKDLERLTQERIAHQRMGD
Chain of VHL Elongin B/C complex (Q15370 whole entry partner, looked up): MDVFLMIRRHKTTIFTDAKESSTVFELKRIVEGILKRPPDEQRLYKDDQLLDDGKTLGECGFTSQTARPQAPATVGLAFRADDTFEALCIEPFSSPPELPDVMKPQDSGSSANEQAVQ
Chain of VHL Elongin B/C complex (Q15369 whole entry partner, looked up): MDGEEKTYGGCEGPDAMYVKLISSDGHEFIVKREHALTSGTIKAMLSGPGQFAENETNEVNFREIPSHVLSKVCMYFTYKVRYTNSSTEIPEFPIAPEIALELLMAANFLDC

Structure (SMILES)	IC50 (VHL Elongin B/C complex) [µM]	DC50 (BRD4) [µM]	PC3 (Steap-1) Sinf (%) (BRD4)
Cc1ncsc1-c1ccc([C@]2(C)NC(C3C[C@@H](O)CN3C(=O)C(c3cc(OCCCCCNC(=O)c4cc5c(cc4CS(C)(=O)=O)-c4cn(C)c(=O)c6[nH]cc(c46)CN5c4ncc(F)cc4F)no3)C(C)C)=NC2=O)cc1 (single isomer, unassigned) [Example 1001.2]	0.795	0.0033	−97.2
Cc1ncsc1-c1ccc([C@]2(C)NC(C3C[C@@H](O)CN3C(=O)C(c3cc(OCCCCCNC(=O)c4cc5c(cc4CS(C)(=O)=O)-c4cn(C)c(=O)c6[nH]cc(c46)CN5c4ncc(F)cc4F)no3)C(C)C)=NC2=O)cc1 (single isomer, unassigned) [Example 1001.3]	> 100	0.14	−29.0
Cc1ncsc1-c1ccc([C@]2(C)NC(C3C[C@@H](O)CN3C(=O)[C@@H](NC(=O)CCCCCCCCCCNC(=O)c3cc4c(cc3CS(C)(=O)=O)-c3cn(C)c(=O)c5[nH]cc(c35)CN4c3ncc(F)cc3F)C(C)(C)C)=NC2=O)cc1 (single isomer, unassigned) [Example 1005.1]	255	–	–
Cc1ncsc1-c1ccc([C@]2(C)NC(C3C[C@@H](O)CN3C(=O)C(c3cc(OCCCCCNC(=O)c4cc5c(cc4CS(C)(=O)=O)-c4cn(C)c(=O)c6[nH]cc(c46)CN5c4ncc(F)cc4F)no3)C(C)C)=NC2=O)cc1 (single isomer, unassigned) [Example 1001.1]	16.9	> 20	–
